Test results published in patent US10399988B2, “4-aminopyrazolo[3,4-d]pyrimidinylazabicyclo derivatives and pharmaceutical composition comprising the same” (Daewoong Pharmaceutical Co., Ltd., priority 2016, dated 2019).
pIC50: −log10 of the molar value.

Assays:
BTK = BTK (Homo sapiens, UniProt Q06187); assay: Inhibitory activity against BTK (ADP-Glo + BTK Kinase enzyme system kit)
ITK = molecular target: T1, ITK (Homo sapiens, UniProt Q08881); assay: Inhibitory activity against ITK (ADP-Glo + ITK Kinase enzyme system kit); selectivity BTK vs. ITK; format: biochemical; settings: for pIC50: ITK enzyme 0.4 ng/uL, ATP 25 uM, luminescence, duplicate; for Selectivity (based on IC50): selectivity for the inhibitory activity of BTK vs. ITK, Equation 1
T1 construct: purchased Promega Corporation
T1 sequence (Q08881 1-620): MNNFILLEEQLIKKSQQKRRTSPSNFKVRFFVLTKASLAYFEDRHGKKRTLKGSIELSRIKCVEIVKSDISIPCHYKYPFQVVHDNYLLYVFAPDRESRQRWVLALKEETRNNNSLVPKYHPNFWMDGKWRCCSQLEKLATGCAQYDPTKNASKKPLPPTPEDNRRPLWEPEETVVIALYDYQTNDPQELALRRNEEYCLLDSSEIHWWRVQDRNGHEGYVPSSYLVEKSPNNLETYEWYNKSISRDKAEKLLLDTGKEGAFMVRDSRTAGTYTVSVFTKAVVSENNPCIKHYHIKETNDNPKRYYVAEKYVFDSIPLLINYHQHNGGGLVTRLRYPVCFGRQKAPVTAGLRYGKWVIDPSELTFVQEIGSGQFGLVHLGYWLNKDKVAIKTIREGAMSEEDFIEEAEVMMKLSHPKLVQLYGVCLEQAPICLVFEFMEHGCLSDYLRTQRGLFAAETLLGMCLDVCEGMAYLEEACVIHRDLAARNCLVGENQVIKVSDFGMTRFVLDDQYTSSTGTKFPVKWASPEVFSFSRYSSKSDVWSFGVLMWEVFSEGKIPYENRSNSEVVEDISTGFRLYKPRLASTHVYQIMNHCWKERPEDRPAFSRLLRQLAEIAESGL

Chain of BTK (Q06187 whole entry): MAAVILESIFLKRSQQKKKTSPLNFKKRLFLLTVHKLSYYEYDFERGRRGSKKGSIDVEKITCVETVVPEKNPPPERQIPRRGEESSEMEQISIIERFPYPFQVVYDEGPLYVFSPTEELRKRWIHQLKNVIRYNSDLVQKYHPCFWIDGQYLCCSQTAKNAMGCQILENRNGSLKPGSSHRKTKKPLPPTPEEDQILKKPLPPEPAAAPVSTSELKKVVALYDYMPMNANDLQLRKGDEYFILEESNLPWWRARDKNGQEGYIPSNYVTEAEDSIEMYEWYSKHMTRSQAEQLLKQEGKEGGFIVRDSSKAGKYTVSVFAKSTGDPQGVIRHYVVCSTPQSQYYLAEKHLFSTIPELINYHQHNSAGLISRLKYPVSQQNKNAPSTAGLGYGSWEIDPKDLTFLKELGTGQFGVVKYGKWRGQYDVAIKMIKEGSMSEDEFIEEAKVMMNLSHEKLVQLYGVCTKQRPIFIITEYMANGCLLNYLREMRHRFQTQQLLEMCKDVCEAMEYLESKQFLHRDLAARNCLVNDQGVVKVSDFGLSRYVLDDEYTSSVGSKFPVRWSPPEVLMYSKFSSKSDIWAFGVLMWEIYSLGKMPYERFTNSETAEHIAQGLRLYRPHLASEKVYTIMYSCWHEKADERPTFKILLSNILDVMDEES

Structure (SMILES) | pIC50 (BTK) | pIC50 (ITK) | Selectivity (based on IC50) (ITK)
C=CC(=O)N1CC2CC1C(n1nc(-c3ccc(C(=O)Nc4cc(C#N)ccn4)cc3)c3c(N)ncnc31)C2 (stereo not drawn) [Ex. 71, 4-(1-(2-acryloyl-2-azabicyclo[2.2.1]heptan-6-yl)-4-amino-1H-pyrazolo[3,4-d]pyrimidin-3-yl)-N-(4-cyanopyridin-2-yl)benzamide] | 9.05 | 6.88 | 147.7
C=CC(=O)N1CC2CC1C(n1nc(-c3ccc(C(=O)Nc4ccccn4)cc3F)c3c(N)ncnc31)C2 (stereo not drawn) [Ex. 64, 4-(1-(2-acryloyl-2-azabicyclo[2.2.1]heptan-6-yl)-4-amino-1H-pyrazolo[3,4-d]pyrimidin-3-yl)-3-fluoro-N-(pyridin-2-yl)benzamide] | 8.80 | 7.15 | 44.7
C=CC(=O)N1C[C@@H]2C[C@H]1C[C@H]2n1nc(-c2ccc(Oc3ccccc3)cc2)c2c(N)ncnc21 [Ex. 14, 1-((1S,4S,5R)-5-(4-amino-3-(4-phenoxyphenyl)-1H-pyrazolo[3,4-d]pyrimidin-1-yl)-2-azabicyclo[2.2.1]heptan-2-yl)prop-2-en-1-one] | 8.59 | < 6.00 | >384.6
Nc1ncnc2c1c(-c1ccc(Oc3ccccc3)cc1)nn2C1CC2CC1N(C(=O)/C=C/CN1CCCCC1)C2 (stereo not drawn) [Ex. 63, (E)-1-(6-(4-amino-3-(4-phenoxyphenyl)-1H-pyrazolo[3,4-d]pyrimidin-1-yl)-2-azabicyclo[2.2.1]heptan-2-yl)-4-(piperidin-1-yl)but-2-en-1-one] | 8.82 | < 6.30 | >333.3
C=CC(=O)N1CC2CC1C(n1nc(-c3ccc(C(=O)Nc4cc(C)ccn4)cc3)c3c(N)ncnc31)C2 (stereo not drawn) [Ex. 68, 4-(1-(2-acryloyl-2-azabicyclo[2.2.1]heptan-6-yl)-4-amino-1H-pyrazolo[3,4-d]pyrimidin-3-yl)-N-(4-methylpyridin-2-yl)benzamide] | 8.62 | 6.76 | 73.1
